Values quoted from earlier work, collected in patent publication US20120087963A1, “DISINFECTANT COMPOSITION COMPRISING A BIGUANIDE COMPOUND” (BIO TECHNICS LIMITED, priority 2009, published 2012).

Test system: bacteria
Details: typical, of the order of

For polyaminopropyl biguanide [PAPB], the Bactericidal concentration is listed as roughly 10 mg/L.
